Data published in patent US9833497B2, “Human originated EGF domain proteins and use of the same” (CHENGDU SOURCEBIO LIMITED-LIABILITY COMPANY, priority 2013, dated 2017).

Key:
Assay type in all cases: cell-based
Aeromonas hydrophila = assay: MIC against Gram-negative bacteria: Aeromonas hydrophila; settings: for MIC A. hydrophila: 5×10^5 CFU/mL; for MIC: A. hydrophila
In short: (§1)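 Purified recombinant human EGF domain proteins are tested by broth dilution in LB against a 5×10^5 CFU/mL inoculum, with two-fold serial dilutions run in triplicate. Plates are incubated at 37° C with shaking, and the MIC is read as the lowest protein concentration without growth.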

Proteus vulgaris = assay: MIC against Gram-negative bacteria: Proteus vulgaris; settings: for MIC P. vulgaris: 5×10^5 CFU/mL; for MIC: P. vulgaris
In short: as §1

Pseudomonas aeruginosa = assay: MIC against Gram-negative bacteria: Pseudomonas aeruginosa; settings: for MIC P. aeruginosa: 5×10^5 CFU/mL; for MIC: P. aeruginosa
In short: as §1

Moraxella catarrhalis = assay: MIC against Gram-negative bacteria: Moraxella catarrhalis; settings: for MIC M. catarrhalis: 5×10^5 CFU/mL; for MIC: M. catarrhalis
In short: as §1

Citrobacter diversus = assay: MIC against Gram-negative bacteria: Citrobacter diversus; settings: for MIC C. diversus: 5×10^5 CFU/mL; for MIC: C. diversus
In short: as §1

Klebsiella pneumonia = assay: MIC against Gram-negative bacteria: Klebsiella pneumonia; settings: for MIC K. pneumonia: 5×10^5 CFU/mL; for MIC: K. pneumonia
In short: as §1

Enterobacter cloacae = assay: MIC against Gram-negative bacteria: Enterobacter cloacae; settings: for MIC E. cloacae: 5×10^5 CFU/mL; for MIC: E. cloacae
In short: as §1

E. coli DH5α = assay: Antibacterial activity: MIC and growth curve against E. coli DH5α in 96-well plate; settings: minimal inhibitory concentration against E. coli DH5α; 96-well plate, 5×10^5 CFU/mL, 37° C., judged after 8 h
In short: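 Log-phase bacteria (OD600 ~0.5) resuspended in LB at 5×10^5 CFU/mL, exposed to recombinant protein at 50, 25, 12.5 μg/mL final in triplicate, 37 °C shaking at 175 rpm. OD600 read every 30 min; MIC is lowest concentration showing no growth.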

E. coli BL21 = assay: MIC against Gram-negative bacteria: E. coli BL21; settings: for MIC E. coli BL21: 5×10^5 CFU/mL; for MIC: E. coli BL21
In short: as §1

Serratia marcescens = assay: MIC against Gram-negative bacteria: Serratia marcescens; settings: for MIC S. marcescens: 5×10^5 CFU/mL; for MIC: S. marcescens
In short: as §1

Proteus mirabilis = assay: MIC against Gram-negative bacteria: Proteus mirabilis; settings: for MIC P. mirabilis: 5×10^5 CFU/mL; for MIC: P. mirabilis
In short: as §1

[1] = 10 h cultivation at 37° C., two-fold serial dilution

## PRT1071 (ELDQCWEHCRNGGTCAASPSGMPTCRCPTGFTGPKCT; listed as Homo sapiens)
Aeromonas hydrophila; [1]
  MIC A. hydrophila: 25 mg/L
Proteus vulgaris; [1]
  MIC P. vulgaris: 50 mg/L
Pseudomonas aeruginosa; [1]
  MIC P. aeruginosa: 12.5 mg/L
Moraxella catarrhalis; [1]
  MIC M. catarrhalis: 50 mg/L
Citrobacter diversus; [1]
  MIC C. diversus: 12.5 mg/L
Klebsiella pneumonia; [1]
  MIC K. pneumonia: 25 mg/L
Enterobacter cloacae; [1]
  MIC E. cloacae: 50 mg/L
E. coli DH5α
  MIC: 50 mg/L
E. coli BL21; [1]
  MIC E. coli BL21: 25 mg/L
Serratia marcescens; [1]
  MIC S. marcescens: 12.5 mg/L
Proteus mirabilis; [1]
  MIC P. mirabilis: 12.5 mg/L

## PRT733 (SSNGCSNNMNACQQICLPVPGGLFSCACATGFKLNPDNRSCS; listed as Homo sapiens)
Aeromonas hydrophila; 96-well plate, 37° C., 10 h
  MIC A. hydrophila: 12.5 mg/L
Proteus vulgaris; 96-well plate, 37° C., 10 h
  MIC P. vulgaris: 12.5 mg/L
Pseudomonas aeruginosa; 96-well plate, 37° C., 10 h
  MIC P. aeruginosa: 50 mg/L
Moraxella catarrhalis; 96-well plate, 37° C., 10 h
  MIC M. catarrhalis: 50 mg/L
Citrobacter diversus; 96-well plate, 37° C., 10 h
  MIC C. diversus: 25 mg/L
Klebsiella pneumonia; 96-well plate, 37° C., 10 h
  MIC K. pneumonia: 12.5 mg/L
Enterobacter cloacae; 96-well plate, 37° C., 10 h
  MIC E. cloacae: 50 mg/L
E. coli DH5α
  MIC: 50 mg/L
E. coli BL21; 96-well plate, 37° C., 10 h
  MIC E. coli BL21: 12.5 mg/L
Serratia marcescens; 96-well plate, 37° C., 10 h
  MIC S. marcescens: 25 mg/L
Proteus mirabilis; 96-well plate, 37° C., 10 h
  MIC P. mirabilis: 25 mg/L

## PRT925 (DINECHSDPCQNDATCLDKIGGFTCLCMPGFKGVHCE; listed as Homo sapiens)
Aeromonas hydrophila; 10 h cultivation at 37° C.
  MIC: 50 mg/L
Proteus vulgaris; 10 h cultivation at 37° C.
  MIC: 50 mg/L
Pseudomonas aeruginosa; 10 h cultivation at 37° C.
  MIC: 50 mg/L
Moraxella catarrhalis; 10 h cultivation at 37° C.
  MIC: 12.5 mg/L
Citrobacter diversus; 10 h cultivation at 37° C.
  MIC: 25 mg/L
Klebsiella pneumonia; 10 h cultivation at 37° C.
  MIC: 12.5 mg/L
Enterobacter cloacae; 10 h cultivation at 37° C.
  MIC: 25 mg/L
E. coli DH5α
  MIC: 12.5 mg/L
E. coli BL21; 10 h cultivation at 37° C.
  MIC: 25 mg/L
Serratia marcescens; 10 h cultivation at 37° C.
  MIC: 12.5 mg/L
Proteus mirabilis; 10 h cultivation at 37° C.
  MIC: 25 mg/L

## PRT1081 (APNPCEANGGQGPCSHLCLINYNRTVSCACPHLMKLHKDNTTCY; listed as Homo sapiens)
Aeromonas hydrophila; [1]
  MIC A. hydrophila: 12.5 mg/L
Proteus vulgaris; [1]
  MIC P. vulgaris: 50 mg/L
Pseudomonas aeruginosa; [1]
  MIC P. aeruginosa: 50 mg/L
Moraxella catarrhalis; [1]
  MIC M. catarrhalis: 12.5 mg/L
Citrobacter diversus; [1]
  MIC C. diversus: 50 mg/L
Klebsiella pneumonia; [1]
  MIC K. pneumonia: 12.5 mg/L
Enterobacter cloacae; [1]
  MIC E. cloacae: 50 mg/L
E. coli DH5α
  MIC: 25 mg/L
E. coli BL21; [1]
  MIC E. coli BL21: 12.5 mg/L
Serratia marcescens; [1]
  MIC S. marcescens: 12.5 mg/L
Proteus mirabilis; [1]
  MIC P. mirabilis: 25 mg/L

## PRT680 (DVNECAEGSPCSPGWCENLPGSFRCTCAQGYAPAPDGRSCL; listed as Homo sapiens)
Aeromonas hydrophila; 96-well plate, 37° C., 10 h
  MIC A. hydrophila: 12.5 mg/L
Proteus vulgaris; 96-well plate, 37° C., 10 h
  MIC P. vulgaris: 50 mg/L
Pseudomonas aeruginosa; 96-well plate, 37° C., 10 h
  MIC P. aeruginosa: 25 mg/L
Moraxella catarrhalis; 96-well plate, 37° C., 10 h
  MIC M. catarrhalis: 50 mg/L
Citrobacter diversus; 96-well plate, 37° C., 10 h
  MIC C. diversus: 25 mg/L
Klebsiella pneumonia; 96-well plate, 37° C., 10 h
  MIC K. pneumonia: 50 mg/L
Enterobacter cloacae; 96-well plate, 37° C., 10 h
  MIC E. cloacae: 25 mg/L
E. coli DH5α
  MIC: 12.5 mg/L
E. coli BL21; 96-well plate, 37° C., 10 h
  MIC E. coli BL21: 25 mg/L
Serratia marcescens; 96-well plate, 37° C., 10 h
  MIC S. marcescens: 25 mg/L
Proteus mirabilis; 96-well plate, 37° C., 10 h
  MIC P. mirabilis: 12.5 mg/L

## PRT977 (EVDPCLAQPCQHGGTCRGYMGGYMCECLPGYNGDNCE; listed as Homo sapiens)
Aeromonas hydrophila; 10 h cultivation at 37° C.
  MIC: 25 mg/L
Proteus vulgaris; 10 h cultivation at 37° C.
  MIC: 50 mg/L
Pseudomonas aeruginosa; 10 h cultivation at 37° C.
  MIC: 12.5 mg/L
Moraxella catarrhalis; 10 h cultivation at 37° C.
  MIC: 25 mg/L
Citrobacter diversus; 10 h cultivation at 37° C.
  MIC: 50 mg/L
Klebsiella pneumonia; 10 h cultivation at 37° C.
  MIC: 50 mg/L
Enterobacter cloacae; 10 h cultivation at 37° C.
  MIC: 12.5 mg/L
E. coli DH5α
  MIC: 12.5 mg/L
E. coli BL21; 10 h cultivation at 37° C.
  MIC: 50 mg/L
Serratia marcescens; 10 h cultivation at 37° C.
  MIC: 25 mg/L
Proteus mirabilis; 10 h cultivation at 37° C.
  MIC: 12.5 mg/L

## PRT1161 (DIDECASHPCKNGATCIDQPGNYFCQCVPPFKVVDGFSCL; listed as Homo sapiens)
Aeromonas hydrophila; [1]
  MIC A. hydrophila: 25 mg/L
Proteus vulgaris; [1]
  MIC P. vulgaris: 25 mg/L
Pseudomonas aeruginosa; [1]
  MIC P. aeruginosa: 12.5 mg/L
Moraxella catarrhalis; [1]
  MIC M. catarrhalis: 25 mg/L
Citrobacter diversus; [1]
  MIC C. diversus: 50 mg/L
Klebsiella pneumonia; [1]
  MIC K. pneumonia: 12.5 mg/L
Enterobacter cloacae; [1]
  MIC E. cloacae: 25 mg/L
E. coli DH5α
  MIC: 25 mg/L
E. coli BL21; [1]
  MIC E. coli BL21: 12.5 mg/L
Serratia marcescens; [1]
  MIC S. marcescens: 50 mg/L
Proteus mirabilis; [1]
  MIC P. mirabilis: 12.5 mg/L
